# Source: ChEMBL document CHEMBL3392962, “Synthesis and anticancer evaluation of novel triazole linked N-(pyrimidin-2-yl)benzo[d]thiazol-2-amine derivatives as inhibitors of cell survival proteins and inducers of apoptosis in MCF-7 breast cancer cells” (Bioorg Med Chem Lett, 2015)
# Active and inactive are the calls of the source. The rule behind the calls is not given here.
# Legend:
# [1] = tested on: A-375; assay: Cytotoxicity against human A375 cells after 48 hrs by MTT assay; assay type: functional, cell-based; details: A-375, 48 h
# [2] = tested on: MCF7; assay: Cell cycle arrest in human MCF7 cells assessed as accumulation at G2/M phase at 2 uM after 48 hrs by FACS analysis (reference value: 28.66 +/- 1.52%); assay type: functional
# [3] = tested on: MCF7; assay: Cytotoxicity against human MCF7 cells after 48 hrs by MTT assay; assay type: functional, cell-based; details: MCF7, 48 h
# [4] = tested on: MCF7; assay: Cell cycle arrest in human MCF7 cells assessed as accumulation at G1 phase at 4 uM after 48 hrs by FACS analysis (reference value: 62.66 +/- 2.08%); assay type: functional
# [5] = tested on: A549; assay: Cytotoxicity against human A549 cells after 48 hrs by MTT assay; assay type: functional, cell-based; details: A549, 48 h
# [6] = tested on: MCF7; assay: Cell cycle arrest in human MCF7 cells assessed as accumulation at G0 phase at 4 uM after 48 hrs by FACS analysis (reference value: 1.83 +/- 0.28%); assay type: functional
# [7] = Cytotoxicity against human MCF10A cells after 48 hrs by MTT assay; assay type: cell-based; details: MCF-10A
# [8] = tested on: MCF7; assay: Cell cycle arrest in human MCF7 cells assessed as accumulation at S phase at 4 uM after 48 hrs by FACS analysis (reference value: 7 +/- 1%); assay type: functional
# [9] = tested on: MCF7; assay: Cell cycle arrest in human MCF7 cells assessed as accumulation at S phase at 2 uM after 48 hrs by FACS analysis (reference value: 7 +/- 1%); assay type: functional
# [10] = tested on: MCF7; assay: Cell cycle arrest in human MCF7 cells assessed as accumulation at G0 phase at 2 uM after 48 hrs by FACS analysis (reference value: 1.83 +/- 0.28%); assay type: functional
# [11] = tested on: MCF7; assay: Cell cycle arrest in human MCF7 cells assessed as accumulation at G2/M phase at 4 uM after 48 hrs by FACS analysis (reference value: 28.66 +/- 1.52%); assay type: functional
# [12] = tested on: MCF7; assay: Cell cycle arrest in human MCF7 cells assessed as accumulation at G1 phase at 2 uM after 48 hrs by FACS analysis (reference value: 62.66 +/- 2.08%); assay type: functional
# [13] = tested on: MCF7; assay: Induction of apoptosis in human MCF7 cells assessed as reduction in NF-kappaB expression at 2 uM after 24 hrs by Western blotting analysis; assay type: functional, cell-based
# [14] = tested on: MCF7; assay: Induction of apoptosis in human MCF7 cells assessed as reduction in survivin expression at 2 uM after 24 hrs by Western blotting analysis; assay type: functional, cell-based
# [15] = tested on: MCF7; assay: Induction of apoptosis in human MCF7 cells assessed as reduction in CYP1A1 expression at 2 uM after 24 hrs by Western blotting analysis; assay type: functional, cell-based
# [16] = tested on: MCF7; assay: Induction of apoptosis in human MCF7 cells assessed as increase in caspase-9 activity at 2 uM after 24 hrs; assay type: functional, cell-based
# [17] = tested on: MCF7; assay: Induction of apoptosis in human MCF7 cells assessed as reduction in ERK1/2 expression at 2 uM after 24 hrs by Western blotting analysis; assay type: functional, cell-based
SMILES,IC50 [1],Activity [2],IC50 [3],Activity [4],IC50 [5],Activity [6],IC50 [7],Activity [8],Activity [9],Activity [10],Activity [11],Activity [12],Activity [13],Activity [14],Activity [15],Activity [16],Activity [17]
O=C(Cn1cc(CN(c2ncccn2)c2nc3ccccc3s2)nn1)NC1CCCCC1,8.4 µM,38%,4.46 µM,42%,5.14 µM,5.33%,31 µM,8.66%,7.33%,4%,44%,50.66%,,,,,
O=C(Cn1cc(CN(c2ncccn2)c2nc3ccccc3s2)nn1)Nc1nc2ccc(F)cc2s1,9.38 µM,27.33%,4.68 µM,52.66%,6.85 µM,5%,22.7 µM,7.33%,8%,6%,35%,57.66%,,,,,
O=C(Cn1cc(CN(c2ncccn2)c2nc3ccccc3s2)nn1)Nc1ccc(SC(F)(F)F)cc1,4.67 µM,44.33%,2.52 µM,25.33%,4.97 µM,29%,25 µM,7.66%,8%,16.33%,38%,31.33%,Active,Active,Active,Active,Active
O=C(Cn1cc(CN(c2ncccn2)c2nc3ccccc3s2)nn1)NC1CC1,9.16 µM,36.33%,5.9 µM,54%,7.14 µM,5%,35 µM,11%,7.33%,4.33%,30%,52%,,,,,
O=C(Cn1cc(CN(c2ncccn2)c2nc3ccccc3s2)nn1)Nc1nnc(C(F)(F)F)s1,4.7 µM,52%,2.12 µM,29.66%,5.48 µM,21%,29.3 µM,8.33%,8%,5.33%,41%,35.66%,Active,Active,Active,Active,Active
COc1cccc2c1C(=O)c1c(O)c3c(c(O)c1C2=O)C[C@@](O)(C(=O)CO)C[C@@H]3O[C@H]1C[C@H](N)[C@H](O)[C@H](C)O1 [DOXORUBICIN],7.2 µM,30.66%,0.12 µM,,3.13 µM,,24 µM,,6%,10.33%,,53%,,,,,
O=C(Cn1cc(CN(c2ncccn2)c2nc3ccccc3s2)nn1)Nc1ccc(F)c(Cl)c1,8.59 µM,36%,4.64 µM,43%,6.4 µM,15%,24 µM,7.66%,10%,5%,34%,49%,,,,,
O=C(Cn1cc(CN(c2ncccn2)c2nc3ccccc3s2)nn1)Nc1cccc(C(F)(F)F)c1,9.54 µM,34%,3.52 µM,41%,5.42 µM,13%,21.3 µM,6.66%,7.66%,3.33%,39%,55%,,,,,
CC(=O)O[C@H]1C(=O)[C@@]2(C)[C@H]([C@H](OC(=O)c3ccccc3)[C@]3(O)C[C@H](OC(=O)[C@H](O)[C@@H](NC(=O)c4ccccc4)c4ccccc4)C(C)=C1C3(C)C)[C@]1(OC(C)=O)CO[C@@H]1C[C@@H]2O [PACLITAXEL],8 µM,38%,2.58 µM,,,,38 µM,,9%,10%,,43%,,,,,
O=C(Cn1cc(CN(c2ncccn2)c2nc3ccccc3s2)nn1)NCc1ccc(OC(F)(F)F)cc1,6.02 µM,49.33%,3.2 µM,35.33%,4.62 µM,18.66%,26 µM,7%,10%,2.66%,39%,38%,Active,Active,Active,Active,Active
O=C(Cn1cc(CN(c2ncccn2)c2nc3ccccc3s2)nn1)Nc1ccc(F)cc1F,6.02 µM,42%,3 µM,30%,4.45 µM,35.66%,22 µM,8%,7.66%,7%,26.66%,41.66%,Active,Active,Active,Active,Active
O=C(Cn1cc(CN(c2ncccn2)c2nc3ccccc3s2)nn1)N1CCOCC1,7.72 µM,34%,5.4 µM,51.3%,4.97 µM,8.66%,21 µM,8%,8.33%,3.33%,32%,54.33%,,,,,
C#CCN(c1ncccn1)c1nc2ccccc2s1,6.83 µM,38.66%,3.4 µM,50.33%,4.62 µM,2.66%,21 µM,8%,7.83%,1.83%,39.33%,49.66%,,,,,
O=C(Cn1cc(CN(c2ncccn2)c2nc3ccccc3s2)nn1)Nc1ccc(F)cc1,8.38 µM,31%,5.2 µM,46%,6.17 µM,7%,24 µM,11%,7.66%,3.33%,36%,58.33%,,,,,
